Where “and” joins values, the source holds several entries; their conditions need not be identical. Identical values can stand only once. Like-named read-outs stand apart in the source and are kept apart here.
Assays:
[1] = log P determination by HPLC on reversed-phase columns (C 18), analogous to OECD Guideline 117; type: physicochemical; details: for logP[a]: method [a]; for logP[b]: method [b]; for chromatographic logP: reversed-phase HPLC column (C 18)
Summary of the method: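 Reversed-phase C18 HPLC per OECD 117, two conditions: [a] pH 2.7, 0.1% formic acid water/acetonitrile, log P(HCOOH); [b] pH 7.8, 0.001 M ammonium hydrogencarbonate/acetonitrile, log P(neutral). Both use a 10–95% acetonitrile gradient; values are interpolated from retention times against C3–C16 unbranched alkan-2-ones.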

Boophilus microplus = Boophilus microplus - injection test; type: in vivo; details: 20 μg/animal, injection into engorged adult female cattle ticks, assessed after 7 days
Protocol: 1. Boophilus microplus—Injection Test
Solvent: dimethyl sulphoxide
To produce a suitable preparation of active compound, 10 mg of active compound are mixed with 0.5 ml of solvent and the concentrate is diluted with solvent to the desired concentration.
1 μl of the active compound solution is injected into the abdomen of 5 engorged adult female cattle ticks (Boophilus microplus). The animals are transferred into dishes and kept in a climate-controlled room.
Efficacy is assessed after 7 days by laying of fertile eggs. Eggs which are not visibly fertile are stored in a climate-controlled cabinet until the larvae hatch after about 42 days. An efficacy of 100% means that none of the ticks has laid any fertile eggs; 0% means that all the eggs are fertile.

Tetranychus urticae = Tetranychus urticae - spray test, OP-resistant (bean leaf discs, 6 days); type: in vivo; details: 500 g/ha, after 6 days; for pest or weed control at 500 g/ha: Tetranychus urticae, foliar, 144 h, read-out: efficacy (spider mites killed)
Summary of the method: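 Bean leaf discs carrying all stages of OP-resistant Tetranychus urticae were sprayed with compound formulated in acetone/DMF and diluted in water with 1000 ppm emulsifier. Mortality was scored after 6 days as % efficacy, where 100% means all mites were killed.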

Meloidogyne incognita = Meloidogyne incognita - test; type: in vivo; details: 20 ppm, lettuce, after 14 days
Protocol: 2. Meloidogyne incognita—Test Solvent: 125.0 parts by weight of acetone To produce a suitable preparation of active compound, 1 part by weight of active compound is mixed with the stated amount of solvent and the concentrate is diluted with water to the desired concentration. Vessels are filled with sand, active compound solution, an egg/larvae suspension of the southern root-knot nematode (Meloidogyne incognita) and lettuce seeds. The lettuce seeds germinate and the plants develop. The galls develop on the roots. After 14 days, the nematicidal efficacy in % is determined by the formation of galls. 100% means that no galls were found; 0% means that the number of galls on the treated plants corresponds to the untreated control.

[2] = pH 2.7, HPLC, acidic range, pH 2.7, 0.1% aqueous formic acid and acetonitrile, read-out: log P(HCOOH)
[3] = pH 2.7, method [a], read-out: logP[a]
[4] = pH 7.8, HPLC, neutral range, pH 7.8, 0.001 molar aqueous ammonium hydrogencarbonate and acetonitrile, read-out: log P(neutral)
[5] = pH 7.8, method [b], read-out: logP[b]

## Cc1cc(F)c(N2C(=O)C(C)N(C(=O)NCC(F)(F)F)C2=O)cc1[S+]([O-])CC(F)(F)F (mixture of isomers) [compound 88]
[1]
  logP[a]: 2.75
  logP[b]: 2.71
Boophilus microplus
  efficacy (laying of fertile eggs): 100%
Tetranychus urticae
  efficacy (spider mites killed): 100%

## Cc1cc(F)c(N2C(=O)C(C)N(C(=O)NCC(C)C)C2=O)cc1[S+]([O-])CC(F)(F)F (mixture of isomers) [compound 89]
[1]
  logP[a]: 3.10
  logP[b]: 3.02
Boophilus microplus
  efficacy (laying of fertile eggs): 100%
Tetranychus urticae
  efficacy (spider mites killed): 100%

## Cc1cc(F)c(N2C(=O)CN(C(=O)NCC3CCCO3)C2=O)cc1[S+]([O-])CC(F)(F)F (mixture of isomers) [compound 91]
[1]
  logP[a]: 2.19
  logP[b]: 2.13
Boophilus microplus
  efficacy (laying of fertile eggs): 100%
Tetranychus urticae
  efficacy (spider mites killed): 100%

## Cc1cc(F)c(N2C(=O)CN(C(=O)NC(C)(C)C)C2=O)cc1[S+]([O-])CC(F)(F)F (racemic) [compound 68]
[1]
  logP[a]: 2.84
  logP[b]: 2.75
Boophilus microplus
  efficacy (laying of fertile eggs): 100%
Meloidogyne incognita
  nematicidal efficacy (formation of galls): 90%
Tetranychus urticae
  efficacy (spider mites killed): 100%

## Cc1cc(F)c(N2C(=O)CN(C(=O)NCC(C)C)C2=O)cc1[S+]([O-])CC(F)(F)F (stereo not shown) [Ex. No. 15, 3-[2-Fluoro-4-methyl-5-(2,2,2-trifluoroethylsulphinyl)phenyl]-N-isobutyl-2,4-dioxoimidazolidine-1-carboxamide]
[1]; [2]
  chromatographic logP: 2.72
[1]; [3]
  chromatographic logP: 2.72
[1]; [4]
  chromatographic logP: 2.66
[1]; [5]
  chromatographic logP: 2.66
Boophilus microplus
  efficacy (laying of fertile eggs): 100%
Tetranychus urticae
  pest or weed control at 500 g/ha: 100%

## CCNC(=O)N1C(=O)N(c2cc([S+]([O-])CC(F)(F)F)c(C)cc2F)C(=O)C1C (stereo not shown) [Ex. No. 27, N-Ethyl-3-[2-fluoro-4-methyl-5-(2,2,2-trifluoroethylsulphinyl)phenyl]-5-methyl-2,4-dioxoimidazolidine-1-carboxamide]
[1]; [2]
  chromatographic logP: 2.42
[1]; [3]
  chromatographic logP: 2.42
[1]; [4]
  chromatographic logP: 2.39
[1]; [5]
  chromatographic logP: 2.39
Boophilus microplus
  efficacy (laying of fertile eggs): 100%
Tetranychus urticae
  pest or weed control at 500 g/ha: 100%

## Cc1cc(F)c(N2C(=O)CN(C(=O)N3CCOCC3)C2=O)cc1[S+]([O-])CC(F)(F)F (stereo not shown) [Ex. No. 125, 3-[2-Fluoro-4-methyl-5-(2,2,2-trifluoroethylsulphinyl)phenyl]-1-(morpholine-4-carbonyl)imidazolidine-2,4-dione]
[1]; [2]
  chromatographic logP: 1.79
[1]; [3]
  chromatographic logP: 1.75
[1]; [4]
  chromatographic logP: 1.75
[1]; [5]
  chromatographic logP: 1.79
Meloidogyne incognita
  nematicidal efficacy (formation of galls): 100%
Tetranychus urticae
  pest or weed control at 500 g/ha: 100%

## Cc1cc(F)c(N2C(=O)CN(C(=O)Nc3cccnc3)C2=O)cc1[S+]([O-])CC(F)(F)F (stereo not shown) [compound 20]
[1]
  logP[a]: 1.51
  logP[b]: 1.98
Meloidogyne incognita
  nematicidal efficacy (formation of galls): 100%
Tetranychus urticae
  efficacy (spider mites killed): 100%

## Cc1cc(C)c([S+]([O-])CC(F)(F)F)cc1N1C(=O)CN(C(=O)NC(C)C)C1=O (stereo not shown) [compound 23]
[1]
  logP[a]: 2.52
  logP[b]: 2.45
Boophilus microplus
  efficacy (laying of fertile eggs): 100%
Meloidogyne incognita
  nematicidal efficacy (formation of galls): 100%

## Cc1cc(F)c(N2C(=O)C(C)N(C(=O)NC3CC3)C2=O)cc1[S+]([O-])CC(F)(F)F (stereo not shown) [compound 28]
[1]
  logP[a]: 2.46
  logP[b]: 2.42
Boophilus microplus
  efficacy (laying of fertile eggs): 100%
Tetranychus urticae
  efficacy (spider mites killed): 100%

## Cc1cc(F)c(N2C(=O)C(C)N(C(=O)NC(C)C)C2=O)cc1[S+]([O-])CC(F)(F)F (stereo not shown) [compound 29]
[1]
  logP[a]: 2.77
  logP[b]: 2.73
Boophilus microplus
  efficacy (laying of fertile eggs): 100%
Tetranychus urticae
  efficacy (spider mites killed): 100%

## Cc1cc(F)c(N2C(=O)CN(C(=O)Nc3ccc(F)cc3)C2=O)cc1[S+]([O-])CC(F)(F)F (stereo not shown) [compound 41]
[1]
  logP[a]: 2.92
  logP[b]: 2.86
Boophilus microplus
  efficacy (laying of fertile eggs): 100%
Tetranychus urticae
  efficacy (spider mites killed): 100%

## Cc1cc(Cl)c(N2C(=O)CN(C(=O)NC3CC3)C2=O)cc1SCC(F)(F)F [compound 50]
[1]
  logP[a]: 3.29
  logP[b]: 3.19
Meloidogyne incognita
  nematicidal efficacy (formation of galls): 90%
Tetranychus urticae
  efficacy (spider mites killed): 100%

## Cc1cc(Cl)c(N2C(=O)CN(C(=O)NC3CC3)C2=O)cc1[S+]([O-])CC(F)(F)F (stereo not shown) [compound 62]
[1]
  logP[a]: 2.38
  logP[b]: 2.29
Boophilus microplus
  efficacy (laying of fertile eggs): 100%
Tetranychus urticae
  efficacy (spider mites killed): 100%

## Cc1cc(Cl)c(N2C(=O)CN(C(=O)NCC(F)(F)F)C2=O)cc1[S+]([O-])CC(F)(F)F (stereo not shown) [compound 63]
[1]
  logP[a]: 2.66
  logP[b]: 2.58
Boophilus microplus
  efficacy (laying of fertile eggs): 100%
Tetranychus urticae
  efficacy (spider mites killed): 100%

## Cc1cc(F)c(N2C(=O)CN(C(=O)Nc3ccccn3)C2=O)cc1SCC(F)(F)F [compound 78]
[1]
  logP[a]: 3.37
  logP[b]: 3.29
Meloidogyne incognita
  nematicidal efficacy (formation of galls): 100%
Tetranychus urticae
  efficacy (spider mites killed): 100%

## CCNC(=O)N1CC(=O)N(c2cc(SCC(F)(F)F)c(Cl)cc2Cl)C1=O [compound 103]
[1]
  logP[a]: 3.25
  logP[b]: 3.26
Meloidogyne incognita
  nematicidal efficacy (formation of galls): 90%
Tetranychus urticae
  efficacy (spider mites killed): 90%

## O=C(Nc1ccc(F)cc1)N1CC(=O)N(c2cc(SCC(F)(F)F)c(Cl)cc2Cl)C1=O [compound 108]
[1]
  logP[a]: 4.09
  logP[b]: 4.20
Meloidogyne incognita
  nematicidal efficacy (formation of galls): 90%
Tetranychus urticae
  efficacy (spider mites killed): 100%

## Cc1cc(F)c(N2C(=O)CN(C(=O)N(C)C3CC3)C2=O)cc1SCC(F)(F)F [compound 121]
[1]
  logP[a]: 2.99
  logP[b]: 3.03
Meloidogyne incognita
  nematicidal efficacy (formation of galls): 90%
Tetranychus urticae
  efficacy (spider mites killed): 100%

## Cc1cc(F)c(N2C(=O)CN(C(=O)N(C)CC(C)C)C2=O)cc1[S+]([O-])CC(F)(F)F (stereo not shown) [compound 126]
[1]
  logP[a]: 2.6
  logP[b]: 2.66
Meloidogyne incognita
  nematicidal efficacy (formation of galls): 100%
Tetranychus urticae
  efficacy (spider mites killed): 100%

## Cc1cc(F)c(N2C(=O)CN(C(=O)N3CCC(F)(F)CC3)C2=O)cc1SCC(F)(F)F [compound 129]
[1]
  logP[a]: 3.27
  logP[b]: 3.29
Meloidogyne incognita
  nematicidal efficacy (formation of galls): 100%
Tetranychus urticae
  efficacy (spider mites killed): 100%

## Cc1cc(F)c(N2C(=O)CN(C(=O)N(C)C)C2=O)cc1SCC(F)(F)F [compound 130]
[1]
  logP[a]: 2.58
  logP[b]: 2.60
Meloidogyne incognita
  nematicidal efficacy (formation of galls): 100%
Tetranychus urticae
  efficacy (spider mites killed): 100% and 90%

## Cc1cc(F)c(N2C(=O)CN(C(=O)N(C)C3CC3)C2=O)cc1[S+]([O-])CC(F)(F)F (stereo not shown) [compound 131]
[1]
  logP[a]: 2.08
  logP[b]: 2.16
Meloidogyne incognita
  nematicidal efficacy (formation of galls): 100%
Tetranychus urticae
  efficacy (spider mites killed): 100%

## Cc1cc(F)c(N2C(=O)CN(C(=O)N3CCC(F)(F)CC3)C2=O)cc1[S+]([O-])CC(F)(F)F (stereo not shown) [compound 132]
[1]
  logP[a]: 2.41
  logP[b]: 2.46
Meloidogyne incognita
  nematicidal efficacy (formation of galls): 100%
Tetranychus urticae
  efficacy (spider mites killed): 90%
